In patent publication EP2605769B1, “BENZOQUINONE DERIVATIVES FOR THE TREATMENT OF MITCHONDRIAL EYE DISEASES” (Santhera Pharmaceuticals (Schweiz) AG, priority 2010, dated 2012):

System: C57BL/6J mice
Test: Optomotor testing of visual acuity in the rotenone mouse model
Type: in vivo
Conditions: for Number of counterclockwise head movements/ 2 min / Number of clockwise head movements/ 2 min: 5 weeks after injection, ± SEM; for Number of counterclockwise head movements/ 2 min: non-injected eye; for Number of clockwise head movements/ 2 min: rotenone-injected eye; for Number of head movements: 2000 mg/kg in diet, mean ± SEM
Procedure: Since RGC loss is associated with visual acuity impairment, we tested whether the neuroprotective effect of the test compound IA also correlated with recovery of visual function. For this purpose, visual acuity was detected by quantifying the optomotor response of animals subjected to the test system described above. The optomotor response was measured as previously described (see […]., et al. Vis. Res., 2005). Mice were placed on a central platform surrounded by a motorized drum with black and white vertical stripes that can rotate in both, clockwise and counterclockwise, direction at different velocities (which can be adjusted to evoke the optimal optokinetic response), and under constant light levels. Mice were allowed to habituate for 5 min to the experimental conditions before stripes were rotated alternately clockwise and counterclockwise, for 2 min in each direction and with an interval of 30 s between the two rotations. The mice were recorded on a computer using a digital video camera mounted above the apparatus to subsequently score the number of head movements by manual counting. Head movements were scored only when the angular speed of the head turn corresponds to that of the drum rotation. After aquisition and encoding by an investigator, a second, blinded investigator conducted all assessments. Codes were broken upon completion of data acquisition by a third investigator. Each mouse was tested at different time points and the apparatus will be cleaned between mice. Data will be presented as mean ± SEM. Paired Student's t-test and analysis of variance (ANOVA) will be used to compare non-normalized data. Statistical significance will be set at p≤0.05(*), p≤0.01(**) and p≤0.001 (***). Table 7: Effect of idebenone pre-treatment on visual acuity in an in vivo mouse model for LHON. Quantification of mouse visual acuity based on the optomotor response in mice pre-treated for 3 weeks with vehicle and idebenone 2000 mg/kg in diet. […] The optomotor response was examined in both clockwise (a) and counterclockwise (b) directions of motion, clockwise and counterclockwise tracking head movements reflecting visual acuity of the rotenone-injected (left) and non-injected (right) eye, respectively.

## COC1=C(OC)C(=O)C(CCCCCCCCCCO)=C(C)C1=O [Compound IA, Idebenone]
2000 mg/kg + rotenone 1 mM
  Number of counterclockwise head movements/ 2 min: 12.5 ± 4.5 head movements/2 min
  Number of clockwise head movements/ 2 min: 9 ± 2 head movements/2 min
2000 mg/kg + rotenone 5 mM
  Number of counterclockwise head movements/ 2 min: 10.5 ± 0.6 head movements/2 min
  Number of clockwise head movements/ 2 min: 3.5 ± 1.5 head movements/2 min
Time post-injection 1 day
  Number of head movements: 0 ± 0 (n=7) head movements/2 min
Time post-injection 7 days
  Number of head movements: 0.5 ± 0.5 (n=7) head movements/2 min
Time post-injection 14 days
  Number of head movements: 1.8 ± 0.8 (n=7) head movements/2 min
Time post-injection 21 days
  Number of head movements: 2.8 ± 1.4 (n=7) head movements/2 min
Time post-injection 28 days
  Number of head movements: 2.8 ± 1.4 (n=7) head movements/2 min
Time post-injection 35 days
  Number of head movements: 3.5 ± 1.5 (n=7) head movements/2 min
Time post-injection 56 days
  Number of head movements: 6 ± 2.1 (n=4) head movements/2 min
Time post-injection -7 days
  Number of head movements: 9.7 ± 0.7 (n=7) head movements/2 min
